Calls of active or inactive are those of the source. The calls are words filed in the database; no cut-off is given here.
Columns and labels:
[1] = target: Protein smoothened (Mus musculus) (UniProt P56726); assay: Activity at Smo in mouse C3H10T1/2 cells assessed as induction of cell differentiation into osteoblast at 10 uM incubated for 6 days by alkaline phosphatase assay relative to GSA-10; type: cell-based; conditions: C3H 10T1/2
[2] = target: Protein smoothened (Mus musculus) (UniProt P56726); assay: Activity at Smo in mouse C3H10T1/2 cells assessed as induction of cell differentiation into osteoblast at 0.3 uM in presence of phosphodiesterase inhibitor IBMX incubated for 6 days by alkaline phosphatase assay; type: cell-based; conditions: C3H 10T1/2
[3] = target: Protein smoothened (Mus musculus) (UniProt P56726); assay: Agonist activity at Smo in mouse C3H10T1/2 cells assessed as effect on Gli3 expression at 10 uM after 48 hrs by RT-PCR method relative to vehicle-treated control; type: cell-based; conditions: C3H 10T1/2
[4] = target: Protein smoothened (Mus musculus) (UniProt P56726); assay: Activity at Smo in mouse C3H10T1/2 cells assessed as induction of cell differentiation into osteoblast incubated for 6 days by alkaline phosphatase assay; type: cell-based; conditions: C3H 10T1/2
[5] = target: Protein smoothened (Mus musculus) (UniProt P56726); assay: Agonist activity at Smo in mouse C3H10T1/2 cells assessed as effect on Gli1 expression at 10 uM after 48 hrs by RT-PCR method relative to vehicle-treated control; type: cell-based; conditions: C3H 10T1/2
[6] = target: Protein smoothened (Mus musculus) (UniProt P56726); assay: Activity at Smo in mouse C3H10T1/2 cells assessed as induction of cell differentiation into osteoblast at 0.3 uM in presence of adenylate cyclase activator forskolin incubated for 6 days by alkaline phosphatase assay; type: cell-based; conditions: C3H 10T1/2
[7] = target: T1, Coelenterazine h 2-monooxygenase (Renilla reniformis) (UniProt P27652); assay: Induction of Renilla reniformis luciferase activity at 10 uM relative to control
T1 sequence (whole entry): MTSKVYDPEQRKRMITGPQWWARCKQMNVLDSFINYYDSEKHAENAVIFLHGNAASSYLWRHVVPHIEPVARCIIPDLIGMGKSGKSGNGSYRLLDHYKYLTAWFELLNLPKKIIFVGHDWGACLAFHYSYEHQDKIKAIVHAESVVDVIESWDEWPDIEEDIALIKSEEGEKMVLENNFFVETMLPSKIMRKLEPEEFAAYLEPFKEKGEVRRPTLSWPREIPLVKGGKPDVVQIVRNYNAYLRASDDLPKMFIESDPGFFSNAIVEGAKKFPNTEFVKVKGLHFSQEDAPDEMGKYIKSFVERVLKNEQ

[8] = target: Protein smoothened (Mus musculus) (UniProt P56726); assay: Agonist activity at Smo in mouse C3H10T1/2 cells assessed as effect on Smo expression at 10 uM after 48 hrs by RT-PCR method relative to vehicle-treated control; type: cell-based; conditions: C3H 10T1/2
[9] = target: Protein smoothened (Mus musculus) (UniProt P56726); assay: Agonist activity at Smo in mouse C3H10T1/2 cells assessed as effect on Gli2 expression at 10 uM after 48 hrs by RT-PCR method relative to vehicle-treated control; type: cell-based; conditions: C3H 10T1/2
[10] = target: Protein smoothened (Mus musculus) (UniProt P56726); assay: Antagonist activity at Smo in mouse NIH/3T3 cells transfected with Gli-dependent firefly luciferase reporter assessed as inhibition of SAG-induced maximal stimulation of Gli transcription factor at 1 uM incubated for 40 hrs relative to control; type: cell-based
[11] = target: Protein smoothened (Mus musculus) (UniProt P56726); assay: Potency index, ratio of GSA-10 EC50 to compound EC50 for activity at Smo in mouse C3H10T1/2 cells assessed as induction of cell differentiation into osteoblast; type: cell-based; conditions: C3H 10T1/2
[12] = target: Protein smoothened (Mus musculus) (UniProt P56726); assay: Agonist activity at Smo in mouse C3H10T1/2 cells assessed as effect on Ptc1 expression at 10 uM after 48 hrs by RT-PCR method relative to vehicle-treated control; type: cell-based; conditions: C3H 10T1/2
[13] = target: Protein smoothened (Mus musculus) (UniProt P56726); assay: Activity at Smo in mouse C3H10T1/2 cells assessed as induction of cell differentiation into osteoblast at 1 uM in presence of phosphodiesterase inhibitor IBMX incubated for 6 days by alkaline phosphatase assay; type: cell-based; conditions: C3H 10T1/2
[14] = target: Protein smoothened (Mus musculus) (UniProt P56726); assay: Activity at Smo in mouse C3H10T1/2 cells assessed as induction of cell differentiation into osteoblast at 1 uM in presence of adenylate cyclase activator forskolin incubated for 6 days by alkaline phosphatase assay; type: cell-based; conditions: C3H 10T1/2
[15] = target: Protein smoothened (Mus musculus) (UniProt P56726); assay: Agonist activity at Smo in mouse C3H10T1/2 cells assessed as effect on Smo expression at 1 uM after 48 hrs by RT-PCR method relative to vehicle-treated control; type: cell-based; conditions: C3H 10T1/2
[16] = target: Protein smoothened (Mus musculus) (UniProt P56726); assay: Agonist activity at Smo in mouse NIH/3T3 cells transfected with Gli-dependent firefly luciferase reporter assessed as stimulation of Gli transcription factor incubated for 40 hrs; type: cell-based
[17] = target: Protein smoothened (Mus musculus) (UniProt P56726); assay: Agonist activity at Smo in mouse C3H10T1/2 cells assessed as effect on Gli3 expression at 1 uM after 48 hrs by RT-PCR method relative to vehicle-treated control; type: cell-based; conditions: C3H 10T1/2
[18] = target: Protein smoothened (Mus musculus) (UniProt P56726); assay: Induction of Smo translocation to primary cilium in mouse NIH/3T3 cells at 1 uM after overnight incubation by DAPI staining-based immunofluorescence assay relative to control; type: cell-based
[19] = target: Protein smoothened (Mus musculus) (UniProt P56726); assay: Agonist activity at Smo in mouse C3H10T1/2 cells assessed as effect on Gli1 expression at 1 uM after 48 hrs by RT-PCR method relative to vehicle-treated control; type: cell-based; conditions: C3H 10T1/2
[20] = target: Protein smoothened (Mus musculus) (UniProt P56726); assay: Agonist activity at Smo in mouse C3H10T1/2 cells assessed as induction of cell differentiation into osteoblast incubated for 6 days by alkaline phosphatase assay; type: cell-based; conditions: C3H 10T1/2
[21] = target: Protein smoothened (Rattus norvegicus) (UniProt P97698); assay: Agonist activity at Smo in cerebellar granule cell precursors isolated from rat at postnatal day 8 assessed as stimulation of proliferation by [3H]-thymidine incorporation assay
Chain of Protein smoothened (Rattus norvegicus) (P97698 whole entry): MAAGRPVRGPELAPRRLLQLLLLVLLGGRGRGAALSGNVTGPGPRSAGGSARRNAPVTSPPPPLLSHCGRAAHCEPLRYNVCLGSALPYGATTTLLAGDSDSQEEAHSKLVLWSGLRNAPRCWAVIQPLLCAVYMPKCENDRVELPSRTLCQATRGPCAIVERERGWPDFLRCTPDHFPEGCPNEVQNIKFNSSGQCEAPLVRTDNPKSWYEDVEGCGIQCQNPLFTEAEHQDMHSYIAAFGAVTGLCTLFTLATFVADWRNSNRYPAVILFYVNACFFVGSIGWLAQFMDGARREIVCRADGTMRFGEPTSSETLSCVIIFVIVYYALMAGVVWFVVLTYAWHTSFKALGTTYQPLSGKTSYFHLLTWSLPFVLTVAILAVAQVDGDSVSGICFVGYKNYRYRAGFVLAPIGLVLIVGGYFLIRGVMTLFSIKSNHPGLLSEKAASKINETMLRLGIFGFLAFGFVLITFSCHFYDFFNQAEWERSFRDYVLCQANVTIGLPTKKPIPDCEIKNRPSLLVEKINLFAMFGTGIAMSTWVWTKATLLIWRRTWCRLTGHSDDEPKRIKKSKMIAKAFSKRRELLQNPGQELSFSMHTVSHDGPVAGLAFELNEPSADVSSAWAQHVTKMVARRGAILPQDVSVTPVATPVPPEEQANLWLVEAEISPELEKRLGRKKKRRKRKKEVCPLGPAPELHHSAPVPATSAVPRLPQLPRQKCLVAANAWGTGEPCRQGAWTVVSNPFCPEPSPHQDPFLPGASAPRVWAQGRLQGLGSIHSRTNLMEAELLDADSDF

Protein smoothened = Protein smoothened (Mus musculus, UniProt P56726); assay: Agonist activity at Smo in mouse NIH/3T3 cells transfected with Gli-dependent firefly luciferase reporter assessed as stimulation of Gli transcription factor; type: cell-based
Chain of Protein smoothened (P56726 whole entry): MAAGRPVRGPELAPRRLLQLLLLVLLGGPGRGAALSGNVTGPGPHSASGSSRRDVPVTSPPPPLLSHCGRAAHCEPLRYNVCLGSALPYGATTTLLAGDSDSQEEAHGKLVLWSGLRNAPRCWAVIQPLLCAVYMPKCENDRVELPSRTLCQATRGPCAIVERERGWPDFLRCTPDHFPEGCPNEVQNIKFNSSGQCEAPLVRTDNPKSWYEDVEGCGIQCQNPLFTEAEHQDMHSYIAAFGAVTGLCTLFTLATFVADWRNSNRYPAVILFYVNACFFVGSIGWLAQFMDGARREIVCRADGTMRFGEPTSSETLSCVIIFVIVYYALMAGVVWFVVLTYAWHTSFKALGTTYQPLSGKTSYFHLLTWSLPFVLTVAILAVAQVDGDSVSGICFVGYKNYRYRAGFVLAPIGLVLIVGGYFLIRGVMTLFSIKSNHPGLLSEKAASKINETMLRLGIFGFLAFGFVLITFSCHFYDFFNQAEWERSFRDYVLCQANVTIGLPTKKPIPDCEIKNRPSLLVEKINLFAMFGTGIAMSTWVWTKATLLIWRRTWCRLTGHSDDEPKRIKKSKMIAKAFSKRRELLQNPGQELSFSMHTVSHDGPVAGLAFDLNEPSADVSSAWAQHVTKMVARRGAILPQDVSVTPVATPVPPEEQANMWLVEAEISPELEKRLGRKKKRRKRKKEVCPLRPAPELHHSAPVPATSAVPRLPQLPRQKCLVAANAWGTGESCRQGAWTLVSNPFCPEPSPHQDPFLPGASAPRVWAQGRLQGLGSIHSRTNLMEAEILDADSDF

[22] = target: Protein smoothened (Mus musculus) (UniProt P56726); assay: Agonist activity at Smo in mouse C3H10T1/2 cells assessed as induction of cell differentiation into osteoblast at 10 uM incubated for 6 days by alkaline phosphatase assay relative to GSA-10; type: cell-based; conditions: C3H 10T1/2
[23] = target: Protein smoothened (Mus musculus) (UniProt P56726); assay: Agonist activity at Smo in mouse C3H10T1/2 cells assessed as effect on Ptc1 expression at 1 uM after 48 hrs by RT-PCR method relative to vehicle-treated control; type: cell-based; conditions: C3H 10T1/2
[24] = target: Protein smoothened (Mus musculus) (UniProt P56726); assay: Agonist activity at Smo in mouse C3H10T1/2 cells assessed as effect on Gli2 expression at 1 uM after 48 hrs by RT-PCR method relative to vehicle-treated control; type: cell-based; conditions: C3H 10T1/2

Chain of Protein smoothened (Mus musculus) (P56726 whole entry): as above

## CCCCCCn1c(=O)c(C(=O)Nc2cccc(C(=O)OC(C)(C)C)c2)c(O)c2ccccc21
[1]
  max activation: 1.3%

## CCCCn1c(=O)c(C(=O)Nc2ccc(C(=O)OCCC)cc2)c(O)c2ccccc21
[1]
  max activation: 135%

## CCCCCCn1c(=O)c(C(=O)Nc2cccc(C(=O)OCC)c2)c(O)c2ccccc21
[1]
  max activation: 1.7%

## CCCCCn1c(=O)c(C(=O)Nc2ccc([N+](=O)[O-])cc2O)c(O)c2ccccc21
[1]
  max activation: 3%

## CCCCCn1c(=O)c(C(=O)Nc2ccc(C(=O)OCCCC)cc2)c(O)c2ccccc21
[1]
  max activation: 123%

## CCCOC(=O)c1ccc(NC(=O)c2c(O)c3ccccc3n(C)c2=O)cc1
[1]
  max activation: 1%

## CCCCCCn1c(=O)c(C(=O)Nc2nc(CC(=O)OCC)cs2)c(O)c2ccccc21
[1]
  max activation: 3%

## CCCCCCn1c(=O)c(C(=O)Nc2ccc(C(=O)NCCC)cc2)c(O)c2ccccc21
[1]
  max activation: 1.6%

## CCCCCCn1c(=O)c(C(=O)Nc2ccc(C(=O)OCCC)c(Cl)c2)c(O)c2ccccc21
[1]
  max activation: 11%

## CCCCCCn1c(=O)c(C(=O)Nc2ccc(C(N)=O)cc2)c(O)c2ccccc21
[1]
  max activation: 1%

## CCOC(=O)c1ccc(NC(=O)c2c(O)c3ccccc3n(Cc3ccccc3)c2=O)cc1
[1]
  max activation: 4%

## c1ccc2c(Oc3nc(Nc4ccc(N5CCOCC5)cc4)c4ncn(C5CCCCC5)c4n3)cccc2c1
[1]
  max activation: 78%

## CCCCCCn1c(=O)c(C(=O)Nc2ccc(OCC)cc2)c(O)c2ccccc21
[1]
  max activation: 1%

## CCCCCCn1c(=O)c(C(=O)Nc2ccc(C(=O)OCc3ccccc3)cc2)c(O)c2ccccc21
[1]
  max activation: 47%

## CCCCCn1c(=O)c(C(=O)Nc2ccc([N+](=O)[O-])cc2)c(O)c2ccccc21
[1]
  max activation: 5%

## CCCCCn1c(=O)c(C(=O)Nc2ccc(C(=O)OCC)cc2)c(O)c2ccccc21
[1]
  max activation: 76%

## CCCCCCn1c(=O)c(C(=O)Nc2ccc(C(=O)OCCCC)cc2)c(O)c2ccccc21
[1]
  max activation: 88%

## CCCCCCn1c(=O)c(C(=O)Nc2ccc(C(=O)O)cc2)c(O)c2ccccc21
[2]
  Activity: Active
[3]
  fold change (FC): 0.98
[4]
  Activity: Dose-dependent effect
[5]
  fold change (FC): 0.05
[6]
  Activity: Active
[7]
  Activity: < 20%
[8]
  fold change (FC): 0.92
[9]
  fold change (FC): 1.63
[1]
  max activation: 137%
[10]
  inhibition: 26%
[11]
  Ratio EC50: 2
[12]
  fold change (FC): 0.26

## CCCOC(=O)c1ccc(NC(=O)c2c(O)c3cc(C)ccc3n(CCC)c2=O)cc1
[1]
  max activation: 85%

## CCCOC(=O)c1ccc(NC(=O)c2c(O)c3cccc4c3n(c2=O)CCC4)cc1
[1]
  max activation: 38%

## CCCOC(=O)c1ccc(NC(=O)c2c(O)c3ccccc3n(CCC)c2=O)cc1
[1]
  max activation: 105%

## CCCCCn1c(=O)c(C(=O)Nc2ccc(C(=O)OCCC)cc2)c(O)c2ccccc21
[1]
  max activation: 138%

## CCCCCCn1c(=O)c(C(=O)Nc2ccc(C(=O)OCC)cc2)c(O)c2ccccc21
[1]
  max activation: 62%

## CCCCCCn1c(=O)c(C(=O)Nc2ccc(C(=O)OC(C)(C)C)cc2)c(O)c2ccccc21
[1]
  max activation: 69%

## CCCOC(=O)c1ccc(NC(=O)c2c(O)c3cc(OC)c(OC)cc3n(CCC)c2=O)cc1
[2]
  Activity: Active
[3]
  fold change (FC): 0.86
[4]
  Activity: Dose-dependent effect
[5]
  fold change (FC): 0.04
[6]
  Activity: Active
[7]
  Activity: < 20%
[8]
  fold change (FC): 0.81
[9]
  fold change (FC): 1.49
[1]
  max activation: 138%
[10]
  inhibition: 54%
[11]
  Ratio EC50: 3
[12]
  fold change (FC): 0.27

## CCCCCc1nc2ccccc2c(=O)n1NC(=O)c1c(O)c2ccccc2n(CC)c1=O
[1]
  max activation: 5%

## CCCCCCn1c(=O)c(C(=O)Nc2ccc(C(=O)OCCC)cc2)c(O)c2ccccc21
[3]
  fold change (FC): 0.85
[4]
  Activity: Dose-dependent effect
[5]
  fold change (FC): 0.05
[7]
  Activity: < 20%
[8]
  fold change (FC): 0.8
[13]
  Activity: Active
[9]
  fold change (FC): 1.35
[10]
  inhibition: 31%
[12]
  fold change (FC): 0.33
[14]
  Activity: Active

## CCCCCCn1c(=O)c(C(=O)Nc2ncc([N+](=O)[O-])s2)c(O)c2ccccc21
[1]
  max activation: 3%

## CN[C@H]1CC[C@H](N(Cc2cccc(-c3ccncc3)c2)C(=O)c2sc3ccccc3c2Cl)CC1
[15]
  fold change (FC): 0.9
[16]
  Activity: Active
[17]
  fold change (FC): 0.72
[18]
  Activity: > 60%
[19]
  fold change (FC): 7.83
[20]
  Activity: Dose-dependent effect
[21]
  Activity: Active
Protein smoothened
  EC50: 0.03 µM
[7]
  Activity: < 20%
[22]
  max activation: 75%
[23]
  fold change (FC): 5.32
[24]
  fold change (FC): 1.24

## CCCCCCn1c(=O)c(C(=O)Nc2cccc(C(=O)OCCC)c2)c(O)c2ccccc21
[1]
  max activation: 2%

## C=CCn1c(=O)c(C(=O)Nc2ccc(C(=O)OCCC)cc2)c(O)c2ccccc21
[1]
  max activation: 22%

## CCCCCCn1c(=O)c(C(=O)Nc2ccc(C(=O)NCCCC)cc2)c(O)c2ccccc21
[1]
  max activation: 92%

## CCCOC(=O)c1ccc(NC(=O)c2c(O)c3ccccc3n(Cc3ccccc3)c2=O)cc1
[1]
  max activation: 7%

## CCCCCCn1c(=O)c(C(=O)Nc2ccc(C(=O)OC(C)C)cc2)c(O)c2ccccc21
[1]
  max activation: 33%

## CCCOC(=O)c1ccc(NC(=O)c2c(O)c3cc(Cl)ccc3n(CCC)c2=O)cc1
[1]
  max activation: 41%

## CCCCCCn1c(=O)c(C(=O)Nc2cccc(C(=O)OCCC)c2C(F)(F)F)c(O)c2ccccc21
[1]
  max activation: 1.4%

## CCCCCCn1c(=O)c(C(=O)Nc2cc(C)cc(C(=O)OCCC)c2)c(O)c2ccccc21
[1]
  max activation: 3%

## CCCOC(=O)c1ccc(NC(=O)c2c(O)c3cc(F)ccc3n(CCC)c2=O)cc1
[1]
  max activation: 98%
